Measurements reported in ChEMBL document CHEMBL1201862, “PubChem BioAssay data set” (2004).
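Dose response: 5 concentrations. Exposure: 48 h. Format: 96-well plates. Endpoint: linear interpolation; highest concentration if not reached. GI50 marks 50% less growth.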 The source made the active and inactive calls. Cut-off read from the data, not from the text of the source: active = GI50 up to about 1.1 µM and inactive = higher.

Tests used:
Assay in all cases: growth of human tumour cells (NCI), 48 h
SW-620 = system: SW-620
A549 = system: A549
SK-OV-3 = system: SK-OV-3
SR = system: SR
ACHN = system: ACHN
MDA-MB-231 = system: MDA-MB-231
HCC 2998 = system: HCC 2998
MCF7 = system: MCF7
NCI-H460 = system: NCI-H460
Malme-3M = system: Malme-3M
CAKI-1 = system: CAKI-1
DU-145 = system: DU-145
RXF 393 = system: RXF 393
786-0 = system: 786-0
OVCAR-3 = system: OVCAR-3
MDA-N = system: MDA-N
HOP-62 = system: HOP-62
SN12C = system: SN12C
OVCAR-8 = system: OVCAR-8
UO-31 = system: UO-31

Compound | GI50 (SW-620) | GI50 (A549) | GI50 (SK-OV-3) | GI50 (SR) | GI50 (ACHN) | GI50 (MDA-MB-231) | GI50 (HCC 2998) | GI50 (MCF7) | GI50 (NCI-H460) | GI50 (Malme-3M) | GI50 (CAKI-1) | GI50 (DU-145) | GI50 (RXF 393) | GI50 (786-0) | GI50 (OVCAR-3) | GI50 (MDA-N) | GI50 (HOP-62) | GI50 (SN12C) | GI50 (OVCAR-8) | GI50 (UO-31)
O=C(O)c1cc(/C=C/c2ccc(O)c(O)c2)ccc1O | > 10 µM (inactive) | > 100 µM (inactive) | > 100 µM (inactive) | 38.3 µM (inactive) | > 100 µM (inactive) | > 100 µM (inactive) | > 100 µM (inactive) | 23.1 µM (inactive) | > 100 µM (inactive) | > 100 µM (inactive) | 32.7 µM (inactive) | > 100 µM (inactive) | 28.1 µM (inactive) | > 100 µM (inactive) | > 100 µM (inactive) | 34.8 µM (inactive) | > 100 µM (inactive) | > 100 µM (inactive) | > 100 µM (inactive) | > 100 µM (inactive)
CCCCCCCCCCCCCCCCNc1nc(=O)n(C2CC(O)C(COP(=O)(O)OC3CC(n4cc(F)c(=O)[nH]c4=O)OC3CO)O2)cc1F (stereo not given) | 32.1 µM (inactive) | 0.0333 µM (active) | 11.6 µM (inactive) | < 0.0243 µM (active) | 0.0234 µM (active) | 28.4 µM (inactive) | < 0.01 µM (active) | < 0.01 µM (active) |  | 12.1 µM (inactive) | 0.258 µM (active) | 0.222 µM (active) | 6.97 µM (inactive) | 0.416 µM (active) | 10 µM (inactive) | 19.4 µM (inactive) | < 0.0296 µM (active) | 0.264 µM (active) | 0.296 µM (active) | 0.257 µM (active)
O=c1[nH]nc(Cc2ccccc2)n1/N=C\c1ccccc1 | > 100 µM (inactive) | > 100 µM (inactive) |  | > 100 µM (inactive) | > 100 µM (inactive) | > 100 µM (inactive) | > 100 µM (inactive) | > 100 µM (inactive) | > 100 µM (inactive) | > 100 µM (inactive) | > 100 µM (inactive) | > 100 µM (inactive) | 24.6 µM (inactive) | 71.3 µM (inactive) | > 100 µM (inactive) | > 100 µM (inactive) | 56.6 µM (inactive) | > 100 µM (inactive) | 90.4 µM (inactive) | > 100 µM (inactive)
C=C1CCCCCCCCC/C=C/1SCCCSC | > 100 µM (inactive) | > 100 µM (inactive) | > 100 µM (inactive) | > 100 µM (inactive) | > 100 µM (inactive) | > 100 µM (inactive) | > 100 µM (inactive) | > 100 µM (inactive) | > 100 µM (inactive) | > 100 µM (inactive) | > 100 µM (inactive) | > 100 µM (inactive) | > 100 µM (inactive) | > 100 µM (inactive) | > 100 µM (inactive) | > 100 µM (inactive) | > 100 µM (inactive) | > 100 µM (inactive) | > 100 µM (inactive) | > 100 µM (inactive)
CCOc1c2ccsc2c(OCC)c2ccsc12 | 3.72 µM (inactive) | 7.21 µM (inactive) | 3.92 µM (inactive) | 4.32 µM (inactive) | 7.1 µM (inactive) | 8.57 µM (inactive) | 6.56 µM (inactive) | 3.59 µM (inactive) | 3.58 µM (inactive) | 3.73 µM (inactive) | 4.61 µM (inactive) | 5 µM (inactive) | 3.59 µM (inactive) | 4.44 µM (inactive) | 3.52 µM (inactive) | 0.94 µM (active) | 4.78 µM (inactive) | 20.6 µM (inactive) | 6.24 µM (inactive) | 9.02 µM (inactive)
CC(=O)N1NC(c2ccccc2)=NC(=O)C1c1cc(C)c(O)c(C)c1 (stereo not given) | 44.4 µM (inactive) | 24.4 µM (inactive) | 18.7 µM (inactive) | 49.3 µM (inactive) | 20.7 µM (inactive) | 21.7 µM (inactive) | 20 µM (inactive) | 21.2 µM (inactive) | 31.1 µM (inactive) | 17.7 µM (inactive) | > 100 µM (inactive) | 22.7 µM (inactive) | 17.5 µM (inactive) | 17.3 µM (inactive) | 19.2 µM (inactive) | 54.6 µM (inactive) | 16.2 µM (inactive) | 27.5 µM (inactive) | 17.6 µM (inactive) | 21.7 µM (inactive)
Cc1ccc(S(=O)(=O)N/N=C2\CC3CC4CCC2C4C3)cc1 (stereo not given) | > 100 µM (inactive) | > 100 µM (inactive) | > 100 µM (inactive) | > 100 µM (inactive) | > 100 µM (inactive) | > 100 µM (inactive) | > 100 µM (inactive) | > 100 µM (inactive) | > 100 µM (inactive) | > 100 µM (inactive) | > 100 µM (inactive) | > 100 µM (inactive) | > 100 µM (inactive) | > 100 µM (inactive) | > 100 µM (inactive) | > 100 µM (inactive) | > 100 µM (inactive) | > 100 µM (inactive) | > 100 µM (inactive) | > 100 µM (inactive)
COC(=O)/C=C1\C(=O)N(C(C)=O)c2ccccc21 | 13.7 µM (inactive) | 7.18 µM (inactive) | 14.8 µM (inactive) | 2.52 µM (inactive) | 6.82 µM (inactive) | 7.6 µM (inactive) | 15.4 µM (inactive) | 3.64 µM (inactive) | 10.5 µM (inactive) | 13.5 µM (inactive) | 0.0671 µM (active) | 9.86 µM (inactive) | 6.04 µM (inactive) | 4.9 µM (inactive) | 7.67 µM (inactive) | 7.85 µM (inactive) | 12.9 µM (inactive) | 6.22 µM (inactive) | 17.4 µM (inactive) | 12.9 µM (inactive)
CCN(c1cccc(NC(=S)Nc2ccccc2N(CC)c2cc(-c3ccccc3)no2)c1)c1cc(-c2ccccc2)no1 | > 100 µM (inactive) | > 100 µM (inactive) | > 100 µM (inactive) | > 100 µM (inactive) | > 100 µM (inactive) | > 100 µM (inactive) | > 100 µM (inactive) | > 100 µM (inactive) | > 100 µM (inactive) | > 100 µM (inactive) | > 100 µM (inactive) | > 100 µM (inactive) | > 100 µM (inactive) | > 100 µM (inactive) | > 100 µM (inactive) | > 100 µM (inactive) | > 100 µM (inactive) | > 100 µM (inactive) | > 100 µM (inactive) | > 100 µM (inactive)
N=C(N)NC1C(O)C(O)C(O)C(NC(=N)N)C1O (stereo not given) | > 100 µM (inactive) | > 100 µM (inactive) | > 100 µM (inactive) | > 100 µM (inactive) | > 100 µM (inactive) | > 100 µM (inactive) | > 100 µM (inactive) | > 100 µM (inactive) | > 100 µM (inactive) | > 100 µM (inactive) | > 100 µM (inactive) | > 100 µM (inactive) | > 100 µM (inactive) | > 100 µM (inactive) | > 100 µM (inactive) | > 100 µM (inactive) | > 100 µM (inactive) | > 100 µM (inactive) | > 100 µM (inactive) | > 100 µM (inactive)
CC1=NN(c2nc(N)nc(/C(C#N)=C/c3ccccc3O)n2)C(C)(C)C1 |  | 15.9 µM (inactive) | 23.1 µM (inactive) | 35.9 µM (inactive) | 18.5 µM (inactive) | 19.9 µM (inactive) | 19.5 µM (inactive) | 24.8 µM (inactive) | 19.4 µM (inactive) | 18.7 µM (inactive) | 19.6 µM (inactive) | 15.4 µM (inactive) | 20.2 µM (inactive) | 15.7 µM (inactive) | 14.7 µM (inactive) | 15.3 µM (inactive) | 20.5 µM (inactive) | 25.5 µM (inactive) | 26.5 µM (inactive) | 18.8 µM (inactive)
Cn1cnc(N)c(N=O)c1=O | > 10 µM (inactive) | > 10 µM (inactive) | > 10 µM (inactive) | > 10 µM (inactive) | > 10 µM (inactive) | > 10 µM (inactive) | > 10 µM (inactive) | > 10 µM (inactive) | > 10 µM (inactive) | > 10 µM (inactive) | > 10 µM (inactive) | > 10 µM (inactive) | > 10 µM (inactive) | > 10 µM (inactive) | > 10 µM (inactive) | > 10 µM (inactive) | > 10 µM (inactive) | > 10 µM (inactive) | > 10 µM (inactive) | 
CN(C)c1nc(N(C)C)nc(N(C)C23CC4CC(CC(C4)C2)C3)n1 | 34.4 µM (inactive) | 39.3 µM (inactive) | 17.9 µM (inactive) | 39.1 µM (inactive) | 41.3 µM (inactive) | 23.8 µM (inactive) | 39.6 µM (inactive) | 37.6 µM (inactive) | 53.1 µM (inactive) | 33 µM (inactive) | > 100 µM (inactive) | 41.1 µM (inactive) | 20 µM (inactive) | 40.5 µM (inactive) | 17.1 µM (inactive) | 21 µM (inactive) | 24 µM (inactive) |  | 32.1 µM (inactive) | 61.1 µM (inactive)
O=C(NC(=O)c1ccccc1[N+](=O)[O-])Nc1ccc(Oc2ncc(Cl)cn2)c(C(F)(F)F)c1 | < 0.01 µM (active) | 0.0183 µM (active) | < 0.01 µM (active) | 0.116 µM (active) | 0.0789 µM (active) | 0.0371 µM (active) | 0.0209 µM (active) | < 0.01 µM (active) | < 0.01 µM (active) | < 0.01 µM (active) | < 0.01 µM (active) | 0.0366 µM (active) | < 0.01 µM (active) | < 0.01 µM (active) | < 0.01 µM (active) | < 0.01 µM (active) | 0.0181 µM (active) | 0.0873 µM (active) | 0.0236 µM (active) | 0.0281 µM (active)
